According to patent US20230310441A1, “TREATMENT FOR SCHIZOPHRENIA” (TAKEDA PHARMACEUTICAL COMPANY, priority 2020, published 2023):
Marks after values point to notes of the source that are not given here.

Tested on: endogenous dopamine release in the human brain
Test: [^11C]PHNO PET of endogenous dopamine release after d-AMPH challenge
Assay type: in vivo
Settings: for effect on [^11C]PHNO BPND: d-AMPH 0.5 mg/kg single oral dose, all ROI; for ΔBPND^AMPH Mean (SD), Ca / ΔBPND^AMPH Mean (SD), GP / ΔBPND^AMPH Mean (SD), Pu / ΔBPND^AMPH Mean (SD), SN / ΔBPND^AMPH Mean (SD), VSt: d-AMPH only scan
Method: A T1-weighted magnetic resonance imaging (MRI) scan of the brain, performed at screening, was used to obtain anatomical information required for PET data analysis. Each subject underwent three [^11C]PHNO PET scans, one at baseline, the second approximately 3 h after a single oral dose of dex-amphetamine (d-AMPH, 0.5 mg/kg), and the third approximately 5 h after a single oral dose of Compound (I) (20 or 40 mg) and 3 h after an oral dose of dex-amphetamine (d-APMH) (0.5 mg/kg) (FIG. 2).
Subjects were positioned in the PET scanner, after the insertion of a venous cannula in an antecubital or forearm vein. Soft padding and head restraints were used to minimize head movement during data acquisition. All dynamic [^11C]PHNO PET scans were acquired on Siemens Biograph 6 PET/CT scanners (Hi-Rez (PET/CT1) or a TruePoint with TrueV, Siemens Healthcare, Erlangen, Germany). All scans for a particular subject were acquired on the same scanner. A low-dose computed tomography (CT) scan was performed immediately before each PET study to estimate signal attenuation. Following an intravenous bolus injection of [^11C]PHNO, dynamic emission data were acquired for 90 min in 26 frames of increasing duration. The dynamic images were reconstructed using Fourier rebinning and a 2D filtered discrete inverse Fourier transform algorithm with 5 mm isotropic Gaussian filter on a 128×128 matrix with 2.6 zoom giving 2 mm isotropic voxels. Appropriate corrections were applied for attenuation, randoms, and scatter.
The primary set of ROIs defined were the ventral striatum (VSt), putamen (Pu) and cerebellum. […] The cerebellum was used as a reference region. An additional set of ROIs including the caudate nucleus (Ca), globus pallidus (GP) and substantia nigra (SN) was also evaluated.
Regional TAC data extracted from the PET images were fitted using a basis function implementation of the SRTM (Gunn et al., 1997) to estimate the binding potential relative to the non-displaceable component (BPND) for each PET scan, as a measure of specific binding (Innis et al., 2007).
Reduction in [^11C]-PHNO specific binding following a d-AMPH challenge (ΔBPND^APMH) was quantified as percent change in postdose BPND (BPND^AMPH) from baseline BPND (BPND^BL):
Reduction in [^11C]-PHNO specific binding following a combination of Compound (I) and d-AMPH (ΔBPND^APMH+C1) was quantified as percent change in postdose BPND (BPND^AMPH+C1) from baseline BPND (BPND^BL):
The effect of Compound (I) (ΔΔBPND) was quantified as the percent change BPND in ΔBPND^APMH+C1 compared to ΔBPND^APMH:
All statistical comparisons were conducted using Student's t-tests for each ROI, using paired tests for within subject comparisons, and unpaired tests for between group comparisons.

[1] = subjects of the 20 mg Compound (I) group
[2] = subjects of the 40 mg Compound (I) group

## C[C@H](N)Cc1ccccc1 [d-AMPH, Dextroamphetamine, reference compound]
  effect on [^11C]PHNO BPND: significant reduction in BPND
Listed as d-APMH
  effect on [^11C]PHNO BPND: robust reduction of [^11C]PHNO BPND
All subjects
  ΔBPND^AMPH Mean (SD), Ca: 15.6 (5.7) * %
  ΔBPND^AMPH Mean (SD), GP: 15.9 (7.7) * %
  ΔBPND^AMPH Mean (SD), Pu: 21.6 (5.1) * %
  ΔBPND^AMPH Mean (SD), SN: 27.8 (10.9) * %
  ΔBPND^AMPH Mean (SD), VSt: 26.5 (7.7) * %
[1]
  ΔBPND^AMPH Mean (SD), Ca: 17.8 (5.7) * %
  ΔBPND^AMPH Mean (SD), GP: 17.6 (1.5) * %
  ΔBPND^AMPH Mean (SD), Pu: 23.6 (4.6) * %
  ΔBPND^AMPH Mean (SD), SN: 28.4 (9.0) * %
  ΔBPND^AMPH Mean (SD), VSt: 25.4 (8.0) * %
[2]
  ΔBPND^AMPH Mean (SD), Ca: 13.4 (5.3) * %
  ΔBPND^AMPH Mean (SD), GP: 14.2 (11.1) * %
  ΔBPND^AMPH Mean (SD), Pu: 19.6 (5.3) * %
  ΔBPND^AMPH Mean (SD), SN: 27.2 (13.6) * %
  ΔBPND^AMPH Mean (SD), VSt: 27.6 (8.2) * %
